Among the data in patent publication US10189863B2, “5,6-dihydro-4H-benzo[b]thieno-[2,3-d]azepine derivatives” (PULMOCIDE LIMITED, priority 2014, dated 2019) are IC50, inhibition and CC50 values, retold here.

Where two headings read alike, the source gives them in different places.

The subject of one data set is RSV A2 strain. The experiment in a line: Assessment of RSV induced CPE in HEp2 cells (RSV A2 strain). It is filed as cell-based. The following applies: human respiratory syncytial virus; for IC50: HEp-2, 120 h; for inhibition at 0.01 µg/mL: Inhibition (%) at 0.01 μg/mL. The protocol: (§1) Assessment of RSV Induced CPE in HEp2 Cells
(§2) HEp2 cells were seeded (10^3/well/50 μL) in 384-well plates (Catalogue number 353962, BD Falcon, Oxford, UK) in […] containing 2 mM L-glutamine and 1 mM sodium pyruvate one day before infection. RSV A2 strain (#0709161v, NCPV, Public Health England, Wiltshire) or RSV B Washington strain (VR-1580, ATCC, Manassas, Va. 20108) virus solutions were prepared in serum free-DMEM with 2 mM L-glutamine and 1 mM sodium pyruvate, and then added (50 μL/well) to achieve a final virus concentration of 1 MOI. Simultaneously test compounds (0.5 μL DMSO solution) were added to 100 μL of HEp2 cell culture with virus solution to provide a final DMSO solution of 0.5%. Plates were incubated (37° C./5% CO2) for 5 days for studies using RSV A2 strain or 6 days for those using RSV B strain, and then resazurin sodium salt (5 μL of 0.03% solution; Sigma-Aldrich, Dorset, UK) was added to each well and the plate incubated for a further 6 hr (37° C./5% CO2). The fluorescence of each well [545 nm (excitation)/590 nm (emission)] was determined using a multi-scanner (Clariostar: BMG, Buckinghamshire, UK). The percentage inhibition for each well was calculated and the IC50, IC75 and IC90 values were calculated from the concentration-response curve generated for each test compound.

For the next data set, the system named is RSV B Washington strain. The experiment in a line: Assessment of RSV induced CPE in HEp2 cells (RSV B Washington strain). The class given is cell-based. The following applies: human respiratory syncytial virus; for IC50: HEp-2, 144 h. As for the experimental part: as §1, §2
The nature of data set [1]: Cell viability: resazurin assay. To be noted: human, HEp2 cells. It is filed as cell-based, human. The protocol:
Cell Viability: Resazurin Assay
HEp2 cells were seeded in 384-well plates (10^3/well/50 μL; BD Falcon Ref 353962) in FBS DMEM (5%, containing 2 mM L-glutamine and 1 mM sodium pyruvate) one day before experimentation. Serum-free DMEM (50 μL) was added to test wells while for control wells the media was removed and sterile water (100 μL) was added. Test compounds (0.5 μL DMSO solution) were added to give a final DMSO concentration of 0.5%. Hep2 cells were incubated with each test compound for 5 days (37° C./5% CO2 in 5% FBS) and then resazurin stock solution (5 μL; 0.03%) was added to each well and the plate incubated for a further 6 hr (37° C./5% CO2). The fluorescence of each well at 545 nm (excitation) and 590 nm (emission) was determined using a multi-scanner (Clariostar: BMG Labtech). The percentage loss of cell viability was calculated for each well relative to vehicle (0.5% DMSO) treatment.
Any apparent increase in cell viability associated with test compound treatment relative to vehicle is consequently tabulated as a negative percentage. Where appropriate, a CC50 value was calculated from the concentration-response curve generated from the concentration-response curve for each test compound.

[2] abbreviates: HEp2 cells, 1 MOI, 5 days, read-out: RSV A2 CPE IC50.
Setting [3] is: HEp-2, HEp2 cells, Inhibition (%) at 0.1 μg/mL, read-out: RSV A2 CPE % Inhibition.
Setting [4] is: HEp2 cells, 1 MOI, 6 days, read-out: RSV B CPE IC50.
The mark [5] stands for this setting: HEp-2, HEp2 cells, Inhibition (%) at 1 μg/mL, read-out: RSV B CPE % Inhibition.

For orientation: IC50 means the concentration needed to halve the response being measured. What is called inhibition is the relative decrease from the control value, in per cent. What is called CC50 is the concentration at which the toxic effect on the cells reaches its halfway point. On to `Cc1ccc(C(=O)Nc2ccc(C(=O)N3CCc4cc(C(=O)Nc5c(F)cccc5Cl)sc4-c4ccccc43)cc2)c(N2CC3(CCOCC3)C2)n1` [Example 41, N-(2-chloro-6-fluorophenyl)-6-(4-(6-methyl-2-(7-oxa-2-azaspiro[3.5]nonan-2-yl)nicotinamido)benzoyl)-5,6-dihydro-4H-benzo[b]thieno[2,3-d]azepine-2-carboxamide], for which the IC50 in the data set on RSV A2 strain (setting [2]) was 0.11 nM; in the data set on RSV B Washington strain (setting [4]) it was 15.4 nM. Also, the inhibition at 0.1 µg/mL in the data set on RSV A2 strain (setting [3]) turned out to be 100%. Moreover, in the data set on RSV B Washington strain (setting [5]), the inhibition at 1 µg/mL stood at 79%. In data set [1], this compound gave a CC50 at 5 days of more than 13600 nM.

Take `Cc1cnc(N2CCC3(CCOCC3)CC2)c(C(=O)Nc2ccc(C(=O)N3CCc4cc(C(=O)Nc5c(C)cccc5F)sc4-c4ccccc43)cc2)c1` [Example 95, N-(2-fluoro-6-methylphenyl)-6-(4-(5-methyl-2-(3-oxa-9-azaspiro[5.5]undecan-9-yl)nicotinamido)benzoyl)-5,6-di-hydro-4H-benzo[b]thieno[2,3-d]azepine-2-carboxamide]: the IC50 in the data set on RSV A2 strain (setting [2]) was 2.4 nM; in the data set with RSV B Washington strain (setting [4]), more than 1340 nM. For the same compound, at 0.01 µg/mL the inhibition in the data set with RSV A2 strain (HEp-2, HEp2 cells) was 100%. Moreover, the inhibition at 1 µg/mL in the data set with RSV B Washington strain (setting [5]) came out at 27%. Further, the CC50 at 5 days in data set [1] was more than 13400 nM.

Regarding `O=C(Nc1ccccc1)c1cc2c(s1)-c1ccccc1N(C(=O)c1ccc(NC(=O)c3cccnc3N3CC4(CCOCC4)C3)cc1)CC2` [Example 1, 6-(4-(2-(7-oxa-2-azaspiro[3.5]nonan-2-yl)nicotinamido)benzoyl)-N-phenyl-5,6-dihydro-4H-benzo[b]thieno[2,3-d]azepine-2-carboxamide], the values for the half-maximal inhibitory concentration (IC50) with RSV A2 strain (read-out: RSV A2 CPE IC50 (nM)) and with RSV B Washington strain (read-out: RSV B CPE IC50 (nM)) were 0.5 nM and 166 nM, respectively. Also, in the data set with RSV A2 strain (HEp-2, read-out: RSV A2 CPE % Inhibition), the inhibition at 0.1 µg/mL was 98%. In the data set on RSV B Washington strain (HEp-2, read-out: RSV B CPE % Inhibition), the inhibition at 1 µg/mL stood at 77%. The compound also registered a CC50 at 5 days in data set [1] of more than 14900 nM.

Consider `Cc1cccc(F)c1NC(=O)c1cc2c(s1)-c1ccccc1N(C(=O)c1ccc(NC(=O)c3cc(F)cnc3N3CC4(CCOCC4)C3)cc1)CC2` [Example 68, 6-(4-(5-fluoro-2-(7-oxa-2-azaspiro[3.5]nonan-2-yl)nicotinamido)benzoyl)-N-(2-fluoro-6-methylphenyl)-5,6-dihydro-4H-benzo[b]thieno[2,3-d]azepine-2-carboxamide], for which the IC50 with RSV A2 strain (setting [2]) amounted to 0.087 nM; with RSV B Washington strain (setting [4]), 17.1 nM. Moreover, in the data set on RSV A2 strain (HEp-2, HEp2 cells), the inhibition at 0.01 µg/mL stood at 90%. Besides, the inhibition at 1 µg/mL in the data set on RSV B Washington strain (setting [5]) worked out at 100%. The same compound showed a CC50 at 5 days in data set [1] of more than 13900 nM.

`O=C(Nc1ccc(Cl)cc1F)c1cc2c(s1)-c1ccccc1N(C(=O)c1ccc(NC(=O)c3cccnc3N3CC4(CCOCC4)C3)cc1)CC2` [Example 21, 6-(4-(2-(7-oxa-2-azaspiro[3.5]nonan-2-yl)nicotinamido)benzoyl)-N-(4-chloro-2-fluorophenyl)-5,6-dihydro-4H-benzo[b]thieno[2,3-d]azepine-2-carboxamide]: the IC50 came out at 1.3 nM with RSV A2 strain (setting [2]) and 100 nM in the data set with RSV B Washington strain (setting [4]). Besides, in the data set with RSV A2 strain (setting [3]), the inhibition at 0.1 µg/mL turned out to be 100%. For the same compound, the inhibition at 1 µg/mL in the data set on RSV B Washington strain (setting [5]) came to 73%. Also, the CC50 at 5 days in data set [1] was more than 13800 nM.

With `Cc1cnc(N2CC3(CCOCC3)C2)c(C(=O)Nc2ccc(C(=O)N3CCc4cc(C(=O)Nc5c(O)cccc5F)sc4-c4ccccc43)cc2)c1` [Example 52, N-(2-fluoro-6-hydroxyphenyl)-6-(4-(5-methyl-2-(7-oxa-2-azaspiro[3.5]nonan-2-yl)nicotinamido)benzoyl)-5,6-dihydro-4H-benzo[b]thieno[2,3-d]azepine-2-carboxamide], the half-inhibitory concentration (IC50) was 0.067 nM in the data set with RSV A2 strain (setting [2]) and 3.3 nM in the data set on RSV B Washington strain (setting [4]). In addition, the inhibition at 0.1 µg/mL in the data set with RSV A2 strain (setting [3]) came out at 96%. Further, in the data set on RSV B Washington strain (setting [5]), the inhibition at 1 µg/mL was found to be 100%. The compound further registered a CC50 at 5 days in data set [1] of more than 13900 nM.

For `CCc1ccccc1NC(=O)c1cc2c(s1)-c1ccccc1N(C(=O)c1ccc(NC(=O)c3cccnc3N3CC4(CCOCC4)C3)cc1)CC2` [Example 17, 6-(4-(2-(7-oxa-2-azaspiro[3.5]nonan-2-yl)nicotinamido)benzoyl)-N-(2-ethylphenyl)-5,6-dihydro-4H-benzo[b]thieno [2,3-d]azepine-2-carboxamide], the IC50 came to 0.66 nM in the data set on RSV A2 strain (setting [2]) and 204 nM with RSV B Washington strain (setting [4]). In addition, in the data set on RSV A2 strain (setting [3]), the inhibition at 0.1 µg/mL turned out to be 100%. Further, the inhibition at 1 µg/mL with RSV B Washington strain (setting [5]) is 77%. This compound also returned a CC50 at 5 days in data set [1] of more than 14300 nM.

As for `Cc1cc(C(=O)Nc2ccc(C(=O)N3CCc4cc(C(=O)Nc5c(C)cccc5F)sc4-c4ccccc43)cc2)c(N2CC3(CCOCC3)C2)nc1C` [Example 44, 6-(4-(5,6-dimethyl-2-(7-oxa-2-azaspiro[3.5]nonan-2-yl)nicotinamido)benzoyl)-N-(2-fluoro-6-methylphenyl)-5,6-dihydro-4H-benzo[b]thieno[2,3-d]azepine-2-carboxamide], the figures for the IC50 in the data set with RSV A2 strain (setting [2]) and with RSV B Washington strain (setting [4]) were 0.13 nM and 16.2 nM, respectively. For the same compound, the inhibition at 0.1 µg/mL in the data set with RSV A2 strain (setting [3]) came to 100%. Further, in the data set with RSV B Washington strain (setting [5]), the inhibition at 1 µg/mL turned out to be 76%. Further, the CC50 at 5 days in data set [1] was more than 13700 nM.

Turning to `Cc1cc(C(=O)Nc2ccc(C(=O)N3CCc4cc(C(=O)Nc5ccccc5F)sc4-c4ccccc43)cc2)c(N2CC3(CCOCC3)C2)nc1C` [Example 43, 6-(4-(5,6-dimethyl-2-(7-oxa-2-azaspiro[3.5]nonan-2-yl)nicotinamido)benzoyl)-N-(2-fluorophenyl)-5,6-dihydro-4H-benzo[b]thieno[2,3-d]azepine-2-carboxamide], the IC50 amounted to 0.12 nM with RSV A2 strain (setting [2]) and 59.4 nM with RSV B Washington strain (setting [4]). Also, the inhibition at 0.1 µg/mL in the data set on RSV A2 strain (setting [3]) turned out to be 100%. The inhibition at 1 µg/mL with RSV B Washington strain (setting [5]) was 72%. Besides, in data set [1], the CC50 at 5 days was more than 14000 nM.

Take `Cc1cccc(F)c1NC(=O)c1cc2c(s1)-c1ccccc1N(C(=O)c1ccc(NC(=O)c3cc4c(nc3N3CC5(CCOCC5)C3)CCC4)cc1F)CC2` [Example 78, 6-(4-(2-(7-oxa-2-azaspiro[3.5]nonan-2-yl)-6,7-dihydro-5H-cyclopenta[b]pyridine-3-carboxamido)-2-fluorobenzoyl)-N-(2-fluoro-6-methylphenyl)-5,6-dihydro-4H-benzo[b]thieno [2,3-d]azepine-2-carboxamide]: the results for the IC50 in the data set on RSV A2 strain (setting [2]) and in the data set on RSV B Washington strain (setting [4]) were 2.4 nM and 1.3 nM, respectively. The compound also had an inhibition at 0.01 µg/mL with RSV A2 strain (HEp-2, HEp2 cells) of 89%. The inhibition at 1 µg/mL with RSV B Washington strain (setting [5]) was determined as 94%. Besides, in data set [1], the CC50 at 5 days was more than 13200 nM.

On to `Cc1cnc(N2CC3(CCOCC3)C2)c(C(=O)Nc2ccc(C(=O)N3CCc4cc(C(=O)Nc5c(F)cccc5C#N)sc4-c4ccccc43)cc2)c1` [Example 51, N-(2-cyano-6-fluorophenyl)-6-(4-(5-methyl-2-(7-oxa-2-azaspiro[3.5]nonan-2-yl)nicotinamido)benzoyl)-5,6-dihydro-4H-benzo[b]thieno[2,3-d]azepine-2-carboxamide], for which the IC50 with RSV A2 strain (setting [2]) amounted to 1.1 nM; in the data set on RSV B Washington strain (setting [4]), 10.1 nM. Moreover, the inhibition at 0.1 µg/mL in the data set with RSV A2 strain (setting [3]) came to 98%. In addition, the inhibition at 1 µg/mL in the data set with RSV B Washington strain (setting [5]) worked out at 99%. The compound also showed a half-maximal cytotoxic concentration (CC50) at 5 days in data set [1] of more than 13800 nM.

On to `Cc1cnc(N2CCC3(CC2)COC3)c(C(=O)Nc2ccc(C(=O)N3CCc4cc(C(=O)Nc5c(F)cccc5Cl)sc4-c4ccccc43)cc2)c1` [Example 93, N-(2-chloro-6-fluorophenyl)-6-(4-(5-methyl-2-(2-oxa-7-azaspiro[3.5]nonan-7-yl)nicotinamido)benzoyl)-5,6-dihydro-4H-benzo[b]thieno[2,3-d]azepine-2-carboxamide], for which the IC50 in the data set on RSV A2 strain (setting [2]) was found to be 0.56 nM; with RSV B Washington strain (setting [4]) it was 59.3 nM. In the data set with RSV A2 strain (HEp-2, HEp2 cells), the inhibition at 0.01 µg/mL turned out to be 98%. In addition, the inhibition at 1 µg/mL in the data set on RSV B Washington strain (setting [5]) is 100%. This compound gave a half-maximal cytotoxic concentration (CC50) at 5 days in data set [1] of more than 13600 nM.
